Laboratory results: patent publication US11549115B2, “Compositions and methods for regulated gene expression” (YALE UNIVERSITY, priority 2017, dated 2023)

Columns and labels:
[1] = LC-MS quantification of aTC in fecal pellets; type: in vivo, mice
Experimental: Germ-free Swiss Webster mice were maintained in flexible plastic gnotobiotic isolators with a 12-hour light/dark cycle and provided a standard, autoclaved mouse chow (5K67 LabDiet, Purina) ad libitum and autoclaved water for the duration of the experiment. Filter-sterilized aTC was added to drinking water stored in red-tinted bottles (Ancare, #PC9RH8.5RD) to inhibit degradation by light. Mice were co-housed for the duration of the experiments. Cage changes were always carried out when aTC was withdrawn from drinking water. Fecal and luminal samples were collected and processed in 2.0 mL screw cap tubes (Axygen Scientific; #SCT-200-C). Germ free status was monitored by 16S rDNA-targeted PCR of fecal DNA and anaerobic and aerobic culture of fecal samples.
(§1) Groups of 6 germ-free Swiss Webster mice were orally gavaged with 1×10^9 CFU of the desired B. thetaiotaomicron strain. Fecal samples (˜100-200 mg) were collected daily for 12 days. aTC (100 μg/mL) was administered in drinking water for 12 hours after fecal collection on day 1. Fecal samples were homogenized in 1 mL of 1× tris-buffered saline (TBS) with a single 5 mm stainless steel bead using a bead beater (BioSpec Products) at 26° C. for 1 minute on the high setting, followed by vortexing at top speed for 8 minutes. Samples were then centrifuged at 500×g for 1 minute to pellet fibrous and insoluble matter. Bacterial cells from 600 μL of the supernatant was isolated through centrifugation at 21,130×g for 3 minutes, resuspended in 50 μL of Sialidase Reaction buffer (50 mM Tris-HCl pH 7.0, 5 mM EDTA) containing 1× BugBuster, and stored at −80° C. for ex vivo sialidase measurements (described below).
To the remaining material, 400 mg of 0.1 mm glass beads was added and further homogenized by bead beating for 2 minutes. Insoluble material was pelleted by centrifuging the sample for 3 minutes at 21,130×g, and 20 μL of the supernatant was used for mass spectrometry measurements of sialic acid and aTC by liquid chromatography coupled tandem mass spectrometry (QqQ) and mass spectrometry (qTOF), respectively.
For aTC measurements, 5 μL of internal standard solution (0.25 μM sulfamethoxazole and caffeine in H2O) were added to each sample (20 μL) and further processed as described above. Dried samples were re-suspended in 4 μL methanol and diluted in 12 μL H2O. Chromatographic separation was performed on a C18 Kinetex Evo column (Phenomenex, 100 mm×2.1 mm, 1.7 μm particle size) using mobile phase A: H2O, 0.1% formic acid and B: methanol, 0.1% formic acid at 45° C. 10 μL of sample were injected at 100% A and 0.4 mL/min flow followed by a linear gradient to 95% B over 5.5 min and 0.4 mL/min flow leading to aTC, caffeine and sulfamethoxazole elution at 3.0, 1.9, 2.1 min, respectively. The qTOF was operated in positive scanning mode (50-1000 m/z) and the following source parameters: VCap: 3500 V, nozzle voltage: 2000 V, gas temp: 225° C.; drying gas 13 L/min; nebulizer: 20 psig; sheath gas temp 225° C.; sheath gas flow 12 L/min. Online mass calibration was performed using a second ionization source and a constant flow (5 μL/min) of reference solution (121.0509 and 922.0098 m/z). Compounds were identified based on the retention time of chemical standards and their accurate mass (tolerance 20 ppm). The MassHunter Quantitative Analysis Software (Agilent, version 7.0) was used for peak integration and quantification was based on calibration curves using chemical standards and the signal intensity of the internal standard spiked into each sample.

[2] = test system: Bt::tetR P1TDP^GH023-NanoLuc; type: in vivo, mice
Experimental: 8-10 week old SPF Rag^−/− mice (Jackson Laboratories) (n=7) were colonized by oral gavage with 1×10^9 CFU of B. thetaiotaomicron TetR-P1TDP^GH023-NanoLuc. Fecal pellets were collected daily after gavage and processed as described above. The supernatant was used for CFU determination by plating dilutions on BHI-blood agar plates containing gentamicin and erythromycin, and 500 μL was used for luminescence measurements (described below).
The 500 μL collected from the resuspended fecal supernatant was centrifuged at 21,130×g for 3 minutes to pellet bacterial cells, which were then resuspended in 50 μL 1× BugBuster (Novagen) in 1×PBS and lysed by one round of freeze-thaw and 10 minutes of nutation at 26° C. Samples were centrifuged at 21,130×g for 10 minutes at 4° C., and 10 μL of the supernatant was mixed with an equal volume of NanoLuc Reaction Buffer to induce luminescence production. Luminescence was measured after a 5 minute incubation at 26° C. on a plate reader (BioTek Synergy H1) with an integration time of 1 second at a gain setting of 100. Luminescence values were normalized to colony forming units (CFUs) determined by dilution plating of the resuspended fecal supernatant on BHI-blood agar plates containing gentamicin and erythromycin.

sialidase BT0455 = assay: Sialidase activity in murine fecal samples (pNP-SA hydrolysis, LC-MS); type: in vivo, Bacteroides thetaiotaomicron; conditions: mice carrying Bt^RS
Experimental: as §1, with “Bacterial cells from 600 μL of the supernatant was isolated through centrifugation at 21,130×g for 3 minutes, resuspended in 50 μL of Sialidase Reaction buffer (50 mM Tris-HCl pH 7.0, 5 mM EDTA) containing 1× BugBuster, and stored at −80° C. for ex vivo sialidase measurements (described below).” left out
Bacterial cells (collected and stored as described above) were lysed through one round of freeze-thaw followed by nutation for 10 minutes at 26° C. […] Quantification of the enzyme reaction product, p-nitrophenol (pNP), was identical to the LC-MS analysis of aTC described above, but with reduced injection volume (5 μL) and methanol replacing acetonitrile as solvent B for the reversed phase chromatography. […] Linear fit values were normalized to amount of protein in the cellular lysates added to each reaction, which was determined by Bradford. […]

[3] = 12 hours of aTC (100 μg/mL) via drinking water

For `Cc1c2c(c(O)c3c(O)cccc13)C(=O)[C@]1(O)C(=O)C(C(N)=O)=C(O)[C@@H](N(C)C)[C@@H]1C2` [aTC, Anhydrotetracycline], the “time to spike of inducer levels in fecal pellets” value [1, 3] was at most 12 h, the “time to undetectable after the spike” value [1, 3] was 24 h and the half-life ([1]; Swiss Webster, mouse, faeces, oral, fecal pellets, gnotobiotic mice with wildtype B. thetaiotaomicron, 100 μg/mL in drinking water for 4 days, read-out: half-life in vivo (converted)) was 1140 min. The “degradation by B. thetaiotaomicron in vivo” value ([1]; comparison with germfree mice) was “does not degrade aTC in vivo”, the “time to detection after addition to drinking water” value ([1]; fecal pellets, 100 μg/mL) was at most 24 h and the “time to undetectable after removal from the water” value ([1]; fecal pellets, 100 μg/mL for 4 days) was 6 days. For the same molecule, the “return of fecal luminescence to baseline after aTC removal” value ([2]; SPF Rag-/- mice) was 3 days, the “increase in fecal luminescence” value ([2]; SPF Rag-/- mice, aTC in drinking water for 48 hours) was 4,800 fold and the “effect on stability of B. thetaiotaomicron in a complete murine microbiota” value ([2]; mouse, in vivo) was “does not affect the stability of B. thetaiotaomicron”. For the same molecule, the “sialidase activity again undetectable after aTC removal” value (sialidase BT0455) was 4 days.
